# Publication PMC3640069 (PLoS ONE, 2013)
# Where two headings read alike, the source gives them in different places. Marks after values point to notes of the source that are not given here.
# Tests used:
# [1] = system: ACE from rabbit lungs; test: ACE inhibitory activity in vitro (HHL hydrolysis, HPLC of hippuric acid); type: biochemical; conditions: 10 µmol/L peptide, crude ACE extract from rabbit lung, 5 mmol/L HHL, 37°C, 10 min pre-incubation + 20 min, RP-HPLC 228 nm, mean ± SD
# Description: ACE extracts were prepared and its activity was determined according to the method of Nakamura et al. and Wu & Ding with some modifications. Briefly, the fresh rabbit lung without connective tissues was cut into pieces and washed with precooled NaCl (0.7%) to get rid of blood. The tissue pieces were homogenized in precooled 5-fold the volume of fresh rabbit lung weight (v/w, mL/g) of 100 mM sodium borate buffer (BBS) (pH 8.3). The mixtures were then filtrated with 3-ply gauze followed by ultracentrifuged for 40 min (40,000 g, at 4°C). The supernatant as crude ACE extracts was retained and stored at 5°C [24].
# The ACE activity was assayed using the method described by Wu & Ding. It was based on the hydrolysis of hippuryl-L-histidyl-L-leucine (HHL) by ACE to hippuric acid (HA) and histidyl-leucine (HL) as products. The HA release from HHL was directly related to the ACE activity. One unit (U) of ACE was defined as the amount of enzyme catalyzing the release of 1 µmol/L HA from the substrate HHL per minute at 37°C. Briefly, 30 µL of ACE crude extracts were mixed with 100 µL of BBS (pH 8.3). The mixture was incubated at 37°C for 10 min. Then, 200 µL of 5 mmol/L HHL solution substrate were added and the reaction mixture was incubated at 37°C for 20 min. The reaction was stopped by the addition of 250 µL of 1 mol/L HCl. 10 µL of solution were analyzed by reversed-phase HPLC and detected at the wavelength of λ = 228 nm. The column was eluted with 20% acetonitrile (in water, v/v) containing 0.1% (v/v) TFA on AKATA purifier 10 with a flow rate of 1.0 mL/min. The blank experiment was executed with premixing 250 µL of 1 mol/L HCl and 30 µL of ACE crude extracts to inhibit the activity of ACE.
# Evaluation of ACE inhibitory activity was assayed using the same method described in above section with some modifications. Briefly, 2 µL of ACE crude extracts were mixed with 80 µL of 10 µmol/L each selected peptide solution. The mixture was incubated at 37°C for 10 min, after which 200 µL of 5 mmol/L HHL solution substrate were added and the reaction mixture was incubated at 37°C for 20 min. Finally, 250 µL of 1 mol/L HCl were added to stop the reaction and 10 µL of solution were used to analyze HA release from HHL by reversed-phase HPLC with the same condition described above and detected at the wavelength of λ = 228 nm. Controls with equal volume of BBS as sample substitute were included for each measurement, and the blank experiment was executed with premixing 250 µL of 1 mol/L HCl and 2 µL of ACE crude extracts to inhibit the activity of ACE, firstly.
# The evaluation of ACE inhibition was based on the measurement of the HA peak areas, and the degree of ACE inhibition (%) was calculated according to Eq.1: [drawing 1] (Eq.1) […]
# [2] = system: ACE; conditions: literature value; cited from earlier work
# Text: In the past decades, researchers have focused on the natural nutraceutical resources and investigated the potential antihypertensive activity in vitro by ACE-inhibitory activity, [5]. Some natural phytochemicals from plants, including rutin, quercetin glycoside, epicatechin-tetramer and cyanidin-3-O-sambubioside have been extensively studied as a substitute for chemo-pharmaceuticals [6]–[8]. Also, some antihypertensive peptides have been identified from hydrolyzed or fermented milk and other dietary sources. Among them, the Isoleucine-Proline-Proline (IPP) and Valine-Proline- ...
# [3] = system: SHR; parameters: method as in 5 sources, ref 30 = [30]; PMID 7673515; doi:10.3168/jds.S0022-0302(95)76745-5; 30 Nakamura Y , Yamamoto N , Sakai K , Takano T ( 1995 ) Antihypertensive effect of sour milk and peptides isolated from it that are inhibitors to angiotensin I-converting enzyme . J Dairy Sci 78 : 12 ||| ref 31 = [31]; PMID 8880454; doi:10.3168/jds.S0022-0302(96)76487-1; 31 Maeno M , Yamamoto N , Takano T ( 1996 ) Identification of an antihypertensive peptide from casein hydrolysate produced by a proteinase from Lactobacillus helveticus CP790 . J Dairy Sci 79 : 1316 – ||| ref 32 = [32]; PMID 9891260; doi:10.3168/jds.S0022-0302(98)75878-3; 32 Abubakar A , Saito T , Kittazawa H , Kawai Y , Itoh T ( 1998 ) Structural analysis of new antihypertensive peptides derived from cheese whey protein by proteinase K digestion . J Dairy Sci 81 : 313 ||| ref 33 = [33]; PMID 10794501; doi:10.1016/s0024-3205(00)00471-9; 33 Nurminen ML , Sipola M , Kaarto H , Pihlanto-Leppälä A , Piilola K , et al ( 2000 ) α-Lactorphin lowers blood pressure measured by radiotelemetry in normotensive and spontaneously hypertensive rats ||| ref 34 = [34]; 34 Miguel M , Contreras MM , Recio I , Aleixandre A ( 2009 ) ACE-inhibitory and antihypertensive properties of a bovine casein hydrolysate . Food Chemistry 112 : 211 – 214 .; conditions: cited from earlier work
# [4] = system: spontaneously hypertensive rats (SHR/Slac); test: Systolic blood pressure of SHR after single intragastric administration (tail-cuff); type: in vivo, rat; conditions: for dose-dependence of the lowering SBP effect: 0.75 versus […] BW, relative lowering SBP rate
# Description: The spontaneously hypertensive, strain SHR/Slac male rats (Production Permit Number: SCXK (Shanghai) 2007-0005; Body weight, average ∼400 g; Age, 20 weeks old), were purchased from Shanghai SLAC Laboratory Animal Co. Ltd. (Shanghai, China). The SHR were housed in cages and maintained under specific pathogen-free conditions on a cycle of 12 h of light and 12 h of darkness at Center of Experimental Animal, School of Pharmacy, Shanghai Jiao Tong University (Use Permit Number: SYXK (Shanghai) 2007-0025). The temperature and humidity in the cages were controlled at 24±1°C and 60±5%, respectively. SHRs were acclimatized for 7 days prior to experimentation. The rats were fed a standard laboratory diet (SLACOM; Shanghai, China), and tap water was freely available. After the hexapeptide water-solution (dose, 1.5 mg/kg body weight) injection with intragastric administration in six SHR, the systolic blood pressure (SBP) of each rat was measured by the tail-cuff method with a programmable electrosphygmomanometer (model SoftronBP-98A; Softron Beijing Incorporated, Beijing, China) at 1 h interval. A heater lamp was on the tail to improve signal quality. To obtain an accurate SBP reading, rats were first habituated to the SBP measurement device. Definitive measurements began when rats remained unperturbed into the chamber throughout the inflation-deflation cycles. The SBP in each SHR with administration of distilled water (2 mL) was used as the control value. The data are expressed as means and standard errors (n = 6).
# To evaluate whether the lowering SBP effect was the dose-dependence relative to the test peptides, the SHR were also treated with 0.75 mg/kg BW peptides water-solution as above program. And the relative lowering SBP effect was calculated as the following equation (Eq.2): [drawing 2] (Eq.2) where SBPinitial is the initial SBP values of SHR right before the peptide administration, SBPlowest is the lowest SBP value obtained within 5 h after the administration with the tested peptides.
# [5] = system: SERCA 2a gene; test: Quantitative real time-PCR of SERCA 2a gene mRNA in SHR heart; type: in vivo, rat; conditions: 3 h after feeding the peptide, GAPDH reference, three biological replicates
# Description: Quantitative real time-PCR (qRT-PCR) analysis was performed using SYBR Premix EX Taq (TaKaRa) on a Rotor-Gene R[…] detection system (Corbett Research) as described by Zhang et al. (2010) with the exception of the annealing temperature at 58 °C when using the primers […]) and […]), [26]. Gene GAPDH was used as reference gene with primer […]) and […]). Three biological replicates were used, and each with three technical repeats.
# [6] = normoglycemic and normotensive animal model; cited from earlier work
# Text: It is necessary to evaluate the ACE-inhibitor effect on the blood glucose level of hyperpietics simultaneously since blood sugar was positively correlated with blood pressure (systolic and diastolic), and this correlation was independent of common associations with age, body mass index (BMI) and heart rate.
molecule,measurement,setting,value
Valine-Proline-Proline [VPP],ACE inhibition rate (%),[1],37.62±6.68^b %
same,IC50,[2],9 µM
YGLF [whey protein derived tetrapeptide],reduction of SBP,"[3]; SHR, subcutaneous, 0.1 mg/kg BW",23±4 mmHg
Isoleucine-Proline-Proline [IPP],ACE inhibition rate (%),[1],56.97±2.40^a %
same,dose-dependence of the lowering SBP effect,[4],dose-dependent effect
same,transcriptional level of SERCA 2a gene,[5],3.80 times of the control
same,IC50,[2],5 µM
same,decrease in SBP,"[3]; SHR, 0.3 mg/kg BW",21.7±4.1 mmHg
Isoleucine-Proline-Proline-Valine- Proline-Proline [IPPVPP],ACE inhibition rate (%),[1],13.17±0.25^c %
same,dose-dependence of the lowering SBP effect,[4],did not
same,transcriptional level of SERCA 2a gene,[5],2.70 times of the control
Valine-Proline-Proline-Isoleucine-Proline-Proline [VPPIPP],ACE inhibition rate (%),[1],34.71±4.38^b %
same,"relative lowering SBP rate, comparison between peptides","[4]; 0.75 mg/kg BW, intragastric",did not show significantly different from IPPVPP and IPP
same,dose-dependence of the lowering SBP effect,[4],dose-dependent effect
same,transcriptional level of SERCA 2a gene,[5],3.98 times of the control
KVLPVPQ [heptapeptide KVLPVPQ (β-casein 169–175aa)],maximal decrease in SBP,"[3]; SHR, 2 mg/kg BW",31.5±5.6 mmHg
C[C@H](CS)C(=O)N1CCC[C@H]1C(=O)O [captopril],decrease in SBP,"[3]; male SHR, 50 mg/kg, 4–6 h after administration",about 53±4 mmHg
same,effect on postprandial blood glucose levels,[6],no significant effect
